Results: US8299111B2, “Compounds which modulate the CB2 receptor” (Boehringer Ingelheim International GmbH, priority 2006, dated 2012)

biological target: T1, human CB2R (Homo sapiens, UniProt P34972); assay: CB2R mediated modulation of cAMP synthesis; assay type: cell-based; settings: found through the use of the above described assays (binding and cAMP); CHO cells expressing human CB2R, forskolin-stimulated cAMP
T1 construct: host or cells: CHO cells
Experimental: B. CB2R Mediated Modulation of cAMP Synthesis:
CHO cells expressing human CB2R (Euroscreen) were plated at a density of 5000 cells per well in 384 well plates and incubated overnight at 37° C. After removing the media, the cells were treated with test compounds diluted in stimulation buffer containing 1 mM IBMX, 0.25% BSA and 10 uM Forskolin. The assay was incubated for 30 minutes at 37° C. Cells were lysed and the cAMP concentration was measured using DiscoverX -XS cAMP kit, following the manufacturer's protocol. In this setting, agonists will decrease forskolin induced production of cAMP while inverse agonists will further increase forskolin induced production of cAMP. EC50 of agonists were calculated as follows. The maximal amount of cAMP produced by forskolin compared to the level of cAMP inhibited by 1 uM CP55940 is defined as 100%. The EC50 value of each test compound was determined as the concentration at which 50% of the forskolin-stimulated cAMP synthesis was inhibited. Data was analyzed using a four-parameter logistic model. (Model 205 of XLfit 4.0).

T1 sequence (P34972 whole entry): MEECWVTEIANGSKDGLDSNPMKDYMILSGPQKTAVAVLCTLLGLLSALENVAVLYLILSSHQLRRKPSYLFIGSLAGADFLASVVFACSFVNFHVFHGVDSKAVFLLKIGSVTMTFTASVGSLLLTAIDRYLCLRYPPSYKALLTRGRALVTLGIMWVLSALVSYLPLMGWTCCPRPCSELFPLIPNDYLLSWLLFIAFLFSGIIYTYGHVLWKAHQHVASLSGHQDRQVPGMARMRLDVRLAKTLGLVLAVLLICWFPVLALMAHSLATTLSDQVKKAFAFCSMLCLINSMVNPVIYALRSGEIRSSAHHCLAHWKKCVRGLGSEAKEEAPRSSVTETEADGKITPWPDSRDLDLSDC

| agonistic activity | SMILES |
| --- | --- |
| agonistic activity | CC(C)(C(=O)Nc1cc(C(F)(F)F)ccn1)S(=O)(=O)c1ccc(S(C)(=O)=O)cc1 [2-methyl-2-{[4-(methylsulfonyl)phenyl]sulfonyl}-N-[4-(trifluoromethyl)pyridin-2-yl]propanamide] |
| agonistic activity | CC(C)(C)c1cc(NC(=O)C(C)(C)S(=O)(=O)c2ccccc2)no1 [2-Benzenesulfonyl-N-(5-tert-butyl-isoxazol-3-yl)-2-methyl-propionamide] |
| agonistic activity | CC(C)(C)c1csc(NC(=O)C(C)(C)S(=O)(=O)c2ccc3ccccc3c2)n1 [N-(4-tert-Butyl-thiazol-2-yl)-2-methyl-2-(naphthalene-2-sulfonyl)-propionamide] |
| agonistic activity | Cn1nc(-c2ccccc2)cc1NC(=O)C(C)(C)S(=O)(=O)c1ccc(F)cc1F [2-(2,4-Difluoro-benzenesulfonyl)-2-methyl-N-(2-methyl-5-phenyl-2H-pyrazol-3-yl)-propionamide] |
| agonistic activity | Cc1nc(NC(=O)C(C)(C)S(=O)(=O)c2cccc(C(F)(F)F)c2)sc1C(C)(C)C [N-(5-tert-Butyl-4-methyl-thiazol-2-yl)-2-methyl-2-(3-trifluoromethyl-benzenesulfonyl)-propionamide] |
| agonistic activity | CCc1sc(NC(=O)C(C)(C)S(=O)(=O)c2ccc(OC)cc2)nc1-c1ccccc1 [N-(5-ethyl-4-phenyl-1,3-thiazol-2-yl)-2-[(4-methoxyphenyl)sulfonyl]-2-methylpropanamide] |
| agonistic activity | Cc1sc(NC(=O)C(C)(C)S(=O)(=O)c2ccc(Cl)cc2)nc1-c1ccccc1 [2-(4-Chloro-benzenesulfonyl)-2-methyl-N-(5-methyl-4-phenyl-thiazol-2-yl)-propionamide] |
| agonistic activity | Cn1nc(C(C)(C)C)cc1NC(=O)C(C)(C)S(=O)(=O)c1ccc(Br)cc1 [2-(4-Bromo-benzenesulfonyl)-N-(5-tert-butyl-2-methyl-2H-pyrazol-3-yl)-2-methyl-propionamide] |
| agonistic activity | CC(C)(C(=O)Nc1nc(C2CCCCC2)cs1)S(=O)(=O)c1ccc(S(C)(=O)=O)cc1 [N-(4-cyclohexyl-1,3-thiazol-2-yl)-2-methyl-2-{[4-(methylsulfonyl)phenyl]sulfonyl}propanamide] |
| agonistic activity | CC(C)(C(=O)Nc1cccc2ccccc12)S(=O)(=O)c1ccc(C(F)(F)F)nc1 [2-methyl-N-1-naphthyl-2-{[6-(trifluoromethyl)pyridin-3-yl]sulfonyl}propanamide] |

The remaining lines, values behind:

| SMILES | agonistic activity |
| --- | --- |
| CC(C)(C(=O)Nc1ccc(C(F)(F)F)cn1)S(=O)(=O)c1ccc(Br)cc1 [2-(4-Bromo-benzenesulfonyl)-2-methyl-N-(5-trifluoromethyl-pyridin-2-yl)-propionamide] | agonistic activity |
| Cn1nc(C(C)(C)C)cc1NC(=O)C(C)(C)S(=O)(=O)c1ccc(Cl)cc1F [N-(5-tert-Butyl-2-methyl-2H-pyrazol-3-yl)-2-(4-chloro-2-fluoro-benzenesulfonyl)-2-methyl-propionamide] | agonistic activity |
| CC(C)(C)Cc1cc(NC(=O)C(C)(C)S(=O)(=O)c2ccc(Cl)cc2)on1 | agonistic activity |
| CC(C)C(C(=O)Nc1cc(C(C)(C)C)on1)S(=O)(=O)c1ccc(C(F)(F)F)cc1 (stereo not shown) [N-(5-tert-Butyl-isoxazol-3-yl)-3-methyl-2-(4-trifluoromethyl-benzenesulfonyl)-butyramide] | agonistic activity |
| CC(C)(C(=O)Nc1ccc(C(F)(F)F)cn1)S(=O)(=O)c1ccc(C#N)cc1 [2-(4-Cyano-benzenesulfonyl)-2-methyl-N-(5-trifluoromethyl-pyridin-2-yl)-propionamide] | agonistic activity |
| CC(C)(C)c1nnc(NC(=O)C(C)(C)S(=O)(=O)c2ccc(F)cc2F)s1 [N-(5-tert-butyl-1,3,4-thiadiazol-2-yl)-2-[(2,4-difluorophenyl)sulfonyl]-2-methylpropanamide] | agonistic activity |
| O=C(Nc1cccc(C(F)(F)F)n1)C1(S(=O)(=O)c2ccc(C(F)(F)F)cc2)CCOCC1 [4-(4-Trifluoromethyl-benzenesulfonyl)-tetrahydro-pyran-4-carboxylic acid (6-trifluoromethyl-pyridin-2-yl)-amide] | agonistic activity |
| CC(C)(C(=O)Nc1ccc(C(F)(F)F)cn1)S(=O)(=O)c1ccc(C#N)cc1F [2-(4-Cyano-2-fluoro-benzenesulfonyl)-2-methyl-N-(5-trifluoromethyl-pyridin-2-yl)-propionamide] | agonistic activity |
| CC(C)(C)c1cnc(NC(=O)C2(S(=O)(=O)c3ccc(Cl)cc3)CCC2)s1 [1-(4-Chloro-benzenesulfonyl)-cyclobutanecarboxylic acid (5-tert-butyl-thiazol-2-yl)-amide] | agonistic activity |
| CC(C)(C(=O)Nc1cc(C(F)(F)F)ccn1)S(=O)(=O)c1ccc(C(F)(F)F)nc1 [2-Methyl-2-(6-trifluoromethyl-pyridine-3-sulfonyl)-N-(4-trifluoromethyl-pyridin-2-yl)-propionamide] | agonistic activity |
| CC(C)(C)c1csc(NC(=O)C2(S(=O)(=O)c3ccc(Cl)cc3)CC2)n1 [1-(4-Chloro-benzenesulfonyl)-cyclopropanecarboxylic acid (4-tert-butyl-thiazol-2-yl)-amide] | agonistic activity |
| CC(C)(C(=O)Nc1cnc2ccccc2c1)S(=O)(=O)c1ccc(Cl)cc1 [2-(4-Chloro-benzenesulfonyl)-2-methyl-N-quinolin-3-yl-propionamide] | agonistic activity |
| Cn1nc(C(C)(C)C)cc1NC(=O)C(C)(C)S(=O)(=O)c1ccc(C#N)cc1F [N-(5-tert-Butyl-2-methyl-2H-pyrazol-3-yl)-2-(4-cyano-2-fluoro-benzenesulfonyl)-2-methyl-propionamide] | agonistic activity |
| CC(C)(C)c1csc(NC(=O)C2(S(=O)(=O)c3ccc(C(F)(F)F)cc3)CC2)n1 [1-(4-Trifluoromethyl-benzenesulfonyl)-cyclopropanecarboxylic acid (4-tert-butyl-thiazol-2-yl)-amide] | agonistic activity |
| Cc1ccc(S(=O)(=O)C(C)(C)C(=O)Nc2ccc(C(F)(F)F)cn2)cc1F [2-(3-Fluoro-4-methyl-benzenesulfonyl)-2-methyl-N-(5-trifluoromethyl-pyridin-2-yl)-propionamide] | agonistic activity |
| CC(C)(C)c1cc(NC(=O)C(C)(C)S(=O)(=O)c2ccc(F)cc2)on1 [N-(3-tert-Butyl-isoxazol-5-yl)-2-(4-fluoro-benzenesulfonyl)-2-methyl-propionamide] | agonistic activity |
| CC(C)(C(=O)Nc1nc(-c2ccccc2)no1)S(=O)(=O)c1ccc(Cl)cc1 [2-(4-Chloro-benzenesulfonyl)-2-methyl-N-(3-phenyl-[1,2,4]oxadiazol-5-yl)-propionamide] | agonistic activity |
| Cc1ccc(S(=O)(=O)C(C)(C)C(=O)Nc2ccc(C(F)(F)F)cn2)cn1 [2-Methyl-2-(6-methyl-pyridine-3-sulfonyl)-N-(5-trifluoromethyl-pyridin-2-yl)-propionamide] | agonistic activity |
